Here are results for twelve compounds from patent US7342000B2, “Semisynthetic macrolide antibiotics of the azalide series” (GlaxoSmithKline istrazivacki center Zagreb, priority 2002, dated 2008).

Common to all, as to test: MIC by broth dilution (NCCLS M7-A2)
Common to all, as to format: cell-based
What all share (settings): 90% growth inhibition
In general terms: Broth dilution looks for growth in wells or tubes with falling amounts of substance.

The subject of one assay is H. influenzae ATCC 49247. An excerpt:
(§1) MIC levels for all compound were determinated on panel of susceptible, and resistant Gram positive bacterial strains (S. aureus, S. pneumoniae and S. pyogenes) and on Gram negative strains (E. coli, H. influenzae, […], M. catarrhalis).

The test system of the next assay is S. pyogenes.
Source text: as §1

The test system of a further assay is S. pyogenes M.
Source text: as §1

The next assay relates to S. aureus ATCC 13709.
Source text: as §1

The subject of assay [1] is M. catarrhalis ATCC 23246.
Source text: as §1

The test system of another assay is S. pyogenes iMLS.
Source text: as §1

A further assay has as its system S. pneumoniae.
Source text: as §1

For the next assay, the system named is E. coli ATCC 25922.
Source text: as §1

Another assay relates to E. faecalis ATCC 29212.
Source text: as §1

`CC[C@H]1OC(=O)[C@H](C)[C@@H](O[C@H]2C[C@@](C)(OC)[C@@H](O)[C@H](C)O2)[C@H](C)[C@@H](O[C@@H]2O[C@H](C)C[C@H](N(C)C)[C@H]2O)[C@](C)(O)C[C@@H](C)CN(CCCNC(=O)Nc2ccccc2C(F)(F)F)[C@H](C)[C@@H](O)[C@]1(C)O` [Example 6, 9-Deoxo-9-dihydro-9a-N-[N′-(2-trifluoromethyl)phenylcarbamoyl-γ-aminopropyl]-9a-aza-9a-homoerithromycin A]: the MIK with H. influenzae ATCC 49247 was 16 µg/mL; in the assay on S. pyogenes, “≦0.125 μg/ml”; with S. pyogenes M, 32 µg/mL; in the assay on S. aureus ATCC 13709, 2 µg/mL; in [1] it was 8 µg/mL; in the assay with S. pyogenes iMLS, 8 µg/mL. Also, the MIK entry with S. pneumoniae is “≦0.125 μg/ml”; in the assay on E. coli ATCC 25922, 32 µg/mL; in the assay with E. faecalis ATCC 29212, 64 µg/mL.

Regarding `CC[C@H]1OC(=O)[C@H](C)[C@@H](O[C@H]2C[C@@](C)(OC)[C@@H](O)[C@H](C)O2)[C@H](C)[C@@H](O[C@@H]2O[C@H](C)C[C@H](N(C)C)[C@H]2O)[C@](C)(O)C[C@@H](C)CN(CCCNC(=O)NC(C)c2cccc3ccccc23)[C@H](C)[C@@H](O)[C@]1(C)O` (stereo partly drawn) [Example 10], the MIK with H. influenzae ATCC 49247 is 2 µg/mL; with S. pyogenes it was “≦0.125 μg/ml”; with S. pyogenes M, 16 µg/mL; with S. aureus ATCC 13709, 16 µg/mL; in [1], 4 µg/mL; in the assay on S. pyogenes iMLS, 8 µg/mL. Besides, the MIK was determined as 8 µg/mL in the assay with S. pneumoniae, 64 µg/mL with E. coli ATCC 25922 and 16 µg/mL with E. faecalis ATCC 29212.

Turning to “9-Deoxo-9-dihydro-9a-N-[N′-(β-cyanoethyl)-N′-benzylcarbamoyl-γ-aminopropyl]-9a-aza-9a-homoerithromycin A [Example 29]”, the MIK in the assay on H. influenzae ATCC 49247 is 32 µg/mL; with S. pyogenes, “≦0.125 μg/ml”; with S. pyogenes M, 64 µg/mL; with S. aureus ATCC 13709, 2 µg/mL; in [1], 4 µg/mL; in the assay with S. pyogenes iMLS, 16 µg/mL. Further, the MIK entry is “≦0.125 μg/ml” with S. pneumoniae, over 64 µg/mL in the assay with E. coli ATCC 25922 and over 64 µg/mL in the assay with E. faecalis ATCC 29212.

`CC[C@H]1OC(=O)[C@H](C)[C@@H](O[C@H]2C[C@@](C)(OC)[C@@H](O)[C@H](C)O2)[C@H](C)[C@@H](O[C@@H]2O[C@H](C)C[C@H](N(C)C)[C@H]2O)[C@](C)(O)C[C@@H](C)CN(CCCNC(=S)N(CCC#N)c2cccc3ccccc23)[C@H](C)[C@@H](O)[C@]1(C)O` [Example 31, 9-Deoxo-9-dihydro-9a-N-[N′-(β-cyanoethyl)-N′-(1-naphtyl)thiocarbamoyl-γ-aminopropyl]-9a-aza-9a-homoerithromycin A]: the MIK in the assay with H. influenzae ATCC 49247 is 2 µg/mL; in the assay with S. pyogenes it was “≦0.125 μg/ml”; with S. pyogenes M, 4 µg/mL; with S. aureus ATCC 13709, 4 µg/mL; in [1], 2 µg/mL; in the assay on S. pyogenes iMLS it was 4 µg/mL. Also, the figures for the MIK entry in the assay on S. pneumoniae, in the assay with E. coli ATCC 25922 and in the assay with E. faecalis ATCC 29212 were “≦0.125 μg/ml”, 8 µg/mL and 4 µg/mL, respectively.

For “9-Deoxo-9-dihydro-9a-N-[N′-(β-cyanoethyl)-N′-isopropylcarbamoyl-γ-aminopropyl]-9a-aza-9a-homorithromycin A [Example 27]”, the MIK with H. influenzae ATCC 49247 is 32 µg/mL; in the assay on S. pyogenes, “≦0.125 μg/ml”; in the assay with S. pyogenes M, 32 µg/mL; in the assay with S. aureus ATCC 13709 it was 4 µg/mL; in [1], 0.5 µg/mL; in the assay on S. pyogenes iMLS, 8 µg/mL. Also, the MIK entry is “≦0.125 μg/ml” in the assay with S. pneumoniae, 16 µg/mL in the assay with E. coli ATCC 25922 and 32 µg/mL in the assay on E. faecalis ATCC 29212.

Consider `CC[C@H]1OC(=O)[C@H](C)[C@@H](O[C@H]2C[C@@](C)(OC)[C@@H](O)[C@H](C)O2)[C@H](C)[C@@H](O[C@@H]2O[C@H](C)C[C@H](N(C)C)[C@H]2O)[C@](C)(O)C[C@@H](C)CN(CCCNC(=O)NC(C)C)[C@H](C)[C@@H](O)[C@]1(C)O` [Example 1, 9-Deoxo-9-dihydro-9a-N-(N′-isopropylcarbainoyl-γ-aminopropyl)-9a-aza-9a-homoerithromycin A], for which the MIK with H. influenzae ATCC 49247 was 32 µg/mL; in the assay on S. pyogenes, “≦0.125 μg/ml”; with S. pyogenes M it was 32 µg/mL; with S. aureus ATCC 13709 it was 2 µg/mL; in assay [1] it was 0.5 µg/mL; in the assay on S. pyogenes iMLS, 8 µg/mL. Besides, the MIK entry in the assay with S. pneumoniae was “≦0.125 μg/ml”; in the assay with E. coli ATCC 25922, 16 µg/mL; in the assay on E. faecalis ATCC 29212, 32 µg/mL.

Regarding `CC[C@H]1OC(=O)[C@H](C)[C@@H](O[C@H]2C[C@@](C)(OC)[C@@H](O)[C@H](C)O2)[C@H](C)[C@@H](O[C@@H]2O[C@H](C)C[C@H](N(C)C)[C@H]2O)[C@](C)(O)C[C@@H](C)CN(CCCNC(=O)Nc2cc(OC)c(OC)c(OC)c2)[C@H](C)[C@@H](O)[C@]1(C)O` [Example 11, 9-Deoxo-9-dihydro-9a-N-[N′-(3,4,5-trimethoxyphenyl)carbamoyl-γ-aminopropyl]-9a-aza-9a-homoerithromycin A], the MIK is 16 µg/mL with H. influenzae ATCC 49247; “≦0.125 μg/ml” with S. pyogenes; 64 µg/mL in the assay with S. pyogenes M; 4 µg/mL in the assay with S. aureus ATCC 13709; 16 µg/mL in assay [1]; 32 µg/mL in the assay with S. pyogenes iMLS. Besides, the MIK result in the assay on S. pneumoniae was “≦0.125 μg/ml”; with E. coli ATCC 25922, over 64 µg/mL; in the assay with E. faecalis ATCC 29212, over 64 µg/mL.

“9-Deoxo-9-dihydro-9a-N-[N′-(β-cyanoethyl)-N′-(2,4-dichlorophenyl)carbamoyl-γ-aminopropyl]-9a-aza-9a-homoerithromycin A [Example 39]”: the MIK in the assay with H. influenzae ATCC 49247 is 16 µg/mL; with S. pyogenes, “≦0.125 μg/ml”; with S. pyogenes M it was 64 µg/mL; in the assay with S. aureus ATCC 13709, 1 µg/mL; in assay [1], 16 µg/mL; with S. pyogenes iMLS, 32 µg/mL. The MIK entry in the assay on S. pneumoniae is “≦0.125 μg/ml”; with E. coli ATCC 25922, over 64 µg/mL; with E. faecalis ATCC 29212, over 64 µg/mL.

As for `CC[C@H]1OC(=O)[C@H](C)[C@@H](O[C@H]2C[C@@](C)(OC)[C@@H](O)[C@H](C)O2)[C@H](C)[C@@H](O[C@@H]2O[C@H](C)C[C@H](N(C)C)[C@H]2O)[C@](C)(O)C[C@@H](C)CN(CCCNC(=S)Nc2cccc3ccccc23)[C@H](C)[C@@H](O)[C@]1(C)O` [Example 5], the MIK with H. influenzae ATCC 49247 was 2 µg/mL; with S. pyogenes it was “≦0.125 μg/ml”; with S. pyogenes M it was 4 µg/mL; with S. aureus ATCC 13709, 2 µg/mL; in assay [1], 2 µg/mL; with S. pyogenes iMLS, 4 µg/mL. Further, the values for the MIK result in the assay on S. pneumoniae, with E. coli ATCC 25922 and with E. faecalis ATCC 29212 were “≦0.125 μg/ml”, 8 µg/mL and 4 µg/mL, respectively.

Consider `CC[C@H]1OC(=O)[C@H](C)[C@@H](O[C@H]2C[C@@](C)(OC)[C@@H](O)[C@H](C)O2)[C@H](C)[C@@H](O[C@@H]2O[C@H](C)C[C@H](N(C)C)[C@H]2O)[C@](C)(O)C[C@@H](C)CN(CCCNC(=O)NCc2ccccc2)[C@H](C)[C@@H](O)[C@]1(C)O` [Example 3, 9-Deoxo-9-dihydro-9a-N-(N′-benzylcarbamoyl-γ-aminopropyl)-9a-aza-9a-homoerithromycin A], for which the MIK with H. influenzae ATCC 49247 was 2 µg/mL; in the assay on S. pyogenes, “≦0.125 μg/ml”; in the assay with S. pyogenes M it was 8 µg/mL; with S. aureus ATCC 13709, 0.5 µg/mL; in [1], 1 µg/mL; in the assay on S. pyogenes iMLS, 4 µg/mL. Further, the MIK result with S. pneumoniae is “≦0.125 μg/ml”; with E. coli ATCC 25922, 16 µg/mL; in the assay on E. faecalis ATCC 29212 it was 16 µg/mL.

With `CC[C@H]1OC(=O)[C@H](C)[C@@H](O[C@H]2C[C@@](C)(OC)[C@@H](O)[C@H](C)O2)[C@H](C)[C@@H](O[C@@H]2O[C@H](C)C[C@H](N(C)C)[C@H]2O)[C@](C)(O)C[C@@H](C)CN(CCCNC(=O)N(CCC#N)c2ccccc2C(F)(F)F)[C@H](C)[C@@H](O)[C@]1(C)O` [Example 32, 9-Deoxo-9-dihydro-9a-N-[N′-(β-cyanoethyl)-N′-(2-(trifluoromethyl)phenyl)carbamoyl-γ-aminopropyl]-9a-aza-homoerithromycin A], the MIK with H. influenzae ATCC 49247 was 16 µg/mL; in the assay on S. pyogenes, “≦0.125 μg/ml”; in the assay with S. pyogenes M it was 32 µg/mL; in the assay with S. aureus ATCC 13709, 4 µg/mL; in [1], 8 µg/mL; with S. pyogenes iMLS it was 8 µg/mL. The MIK result with S. pneumoniae was “≦0.125 μg/ml”; in the assay with E. coli ATCC 25922, 32 µg/mL; in the assay with E. faecalis ATCC 29212 it was 64 µg/mL.

As for `CC[C@H]1OC(=O)[C@H](C)[C@@H](O[C@H]2C[C@@](C)(OC)[C@@H](O)[C@H](C)O2)[C@H](C)[C@@H](O[C@@H]2O[C@H](C)C[C@H](N(C)C)[C@H]2O)[C@](C)(O)C[C@@H](C)CN(CCCNC(=O)N(CCC#N)CCCc2ccccc2)[C@H](C)[C@@H](O)[C@]1(C)O` [Example 33, 9-Deoxo-9-dihydro-9a-N-[N′-(β-cyanoethyl)-N′-(3-phenylpropyl)carbamoyl-γ-aminopropyl]-9a-aza-9a-homoerithromycin A], the MIK is 2 µg/mL in the assay with H. influenzae ATCC 49247; “≦0.125 μg/ml” in the assay on S. pyogenes; 8 µg/mL with S. pyogenes M; 1 µg/mL in the assay on S. aureus ATCC 13709; 1 µg/mL in assay [1]; 4 µg/mL in the assay on S. pyogenes iMLS. In addition, the MIK result is “≦0.125 μg/ml” with S. pneumoniae, 16 µg/mL in the assay on E. coli ATCC 25922 and 16 µg/mL in the assay on E. faecalis ATCC 29212.
